Experimental data: US7279444B2, “Substituted benzoylpyrazoles” (Bayer CropScience GmbH, priority 1999, dated 2007)
Marks after values point to notes of the source that are not given here.

Assay: log P by HPLC on reversed-phase column (C 18), acidic range
Assay type: physicochemical
Procedure: Temperature: 43° C. […] The log P values given in Table 3 were determined in accordance with EEC Directive 79/831 Annex V.A8 by HPLC (High Performance Liquid Chromatography) on a reversed-phase column (C 18). Temperature: 43° C. […] The log P values given in Tables 4 were determined in accordance with EEC Directive 79/831 Annex V.A8 by HPLC (High Performance Liquid Chromatography) on a reversed-phase column (C 18). Temperature: 43° C.

logP	SMILES
logP =1.98^a)	CCn1ncc(C(=O)c2ccc(C(F)(F)F)cc2Cn2nc(COC)n(C)c2=O)c1O [Example 65]
logP = 3.73^a)	CCn1ncc(C(=O)c2ccc(C(F)(F)F)cc2Cn2nc(SC)n(C)c2=O)c1OS(=O)(=O)c1ccc(C)cc1 [ID-10]
logP = 2.82^a)	CCn1ncc(C(=O)c2ccc(C(F)(F)F)cc2Cn2nc(SC)n(C)c2=O)c1OS(C)(=O)=O [ID-12]
logP = 2.74^a)	CCOc1nn(Cc2cc(C(F)(F)F)ccc2C(=O)c2cnn(CC)c2OC)c(=O)n1C [ID-13]
logP = 2.82^a)	CCOc1c(C(=O)c2ccc(C(F)(F)F)cc2Cn2nc(OCC)n(C)c2=O)cnn1CC [ID-14]
logP = 3.11^a)	CCOc1nn(Cc2cc(C(F)(F)F)ccc2C(=O)c2cnn(CC)c2OC(C)C)c(=O)n1C [ID-15]
logP = 2.99^a)	C=CCOc1c(C(=O)c2ccc(C(F)(F)F)cc2Cn2nc(OCC)n(C)c2=O)cnn1CC [ID-16]
logP = 3.45^a)	CCOc1nn(Cc2cc(C(F)(F)F)ccc2C(=O)c2cnn(CC)c2OCc2ccccc2)c(=O)n1C [ID-17]
logP = 3.79^a)	CCOc1nn(Cc2cc(C(F)(F)F)ccc2C(=O)c2cnn(CC)c2OCc2ccc(C)cc2)c(=O)n1C [ID-18]
logP = 3.97^a)	CCOc1nn(Cc2cc(C(F)(F)F)ccc2C(=O)c2cnn(CC)c2OCc2ccc(Br)cc2)c(=O)n1C [ID-19]
logP = 3.12^a)	CCOc1nn(Cc2cc(C(F)(F)F)ccc2C(=O)c2cnn(CC)c2OCc2ccc(C#N)cc2)c(=O)n1C [ID-20]
logP = 3.49^a)	CCOc1nn(Cc2cc(C(F)(F)F)ccc2C(=O)c2cnn(CC)c2OCc2ccc(F)cc2)c(=O)n1C [ID-21]
logP = 3.85^a)	CCOc1nn(Cc2cc(C(F)(F)F)ccc2C(=O)c2cnn(CC)c2OCc2ccc(Cl)cc2)c(=O)n1C [ID-22]
logP = 4.26^a)	CCOc1nn(Cc2cc(C(F)(F)F)ccc2C(=O)c2cnn(CC)c2OCc2ccc(Cl)c(Cl)c2)c(=O)n1C [ID-23]
logP = 3.84^a)	CCOc1nn(Cc2cc(C(F)(F)F)ccc2C(=O)c2cnn(CC)c2OCc2cccc(Cl)c2)c(=O)n1C [ID-24]
logP = 3.33^a)	CCOc1nn(Cc2cc(C(F)(F)F)ccc2C(=O)c2cnn(CC)c2OCc2ccc([N+](=O)[O-])cc2)c(=O)n1C [ID-25]
logP = 3.98^a)	CCOc1nn(Cc2cc(C(F)(F)F)ccc2C(=O)c2cnn(CC)c2OCc2ccc(C(F)(F)F)cc2)c(=O)n1C [ID-26]
logP = 3.94^a)	CCOc1nn(Cc2cc(C(F)(F)F)ccc2C(=O)c2cnn(CC)c2OCc2cccc(C(F)(F)F)c2)c(=O)n1C [ID-27]

logP	SMILES
logP = 2.65^a)	CCn1ncc(C(=O)c2ccc(C(F)(F)F)cc2Cn2nc(SC)n(C)c2=O)c1OC [ID-30]
logP = 2.71^a)	CCOc1c(C(=O)c2ccc(C(F)(F)F)cc2Cn2nc(SC)n(C)c2=O)cnn1CC [ID-31]
logP = 3.00^a)	CCn1ncc(C(=O)c2ccc(C(F)(F)F)cc2Cn2nc(SC)n(C)c2=O)c1OC(C)C [ID-32]
logP = 2.89^a)	C=CCOc1c(C(=O)c2ccc(C(F)(F)F)cc2Cn2nc(SC)n(C)c2=O)cnn1CC [ID-33]
logP = 3.37^a)	CCn1ncc(C(=O)c2ccc(C(F)(F)F)cc2Cn2nc(SC)n(C)c2=O)c1OCc1ccccc1 [ID-34]
logP = 3.71^a)	CCn1ncc(C(=O)c2ccc(C(F)(F)F)cc2Cn2nc(SC)n(C)c2=O)c1OCc1ccc(C)cc1 [ID-35]
logP = 3.89^a)	CCn1ncc(C(=O)c2ccc(C(F)(F)F)cc2Cn2nc(SC)n(C)c2=O)c1OCc1ccc(Br)cc1 [ID-36]
logP =3.06^a)	CCn1ncc(C(=O)c2ccc(C(F)(F)F)cc2Cn2nc(SC)n(C)c2=O)c1OCc1ccc(C#N)cc1 [ID-37]
logP = 3.41^a)	CCn1ncc(C(=O)c2ccc(C(F)(F)F)cc2Cn2nc(SC)n(C)c2=O)c1OCc1ccc(F)cc1 [ID-38]
logP = 3.78^a)	CCn1ncc(C(=O)c2ccc(C(F)(F)F)cc2Cn2nc(SC)n(C)c2=O)c1OCc1ccc(Cl)cc1 [ID-39]
logP = 4.17^a)	CCn1ncc(C(=O)c2ccc(C(F)(F)F)cc2Cn2nc(SC)n(C)c2=O)c1OCc1ccc(Cl)c(Cl)c1 [ID-40]
logP = 3.76^a)	CCn1ncc(C(=O)c2ccc(C(F)(F)F)cc2Cn2nc(SC)n(C)c2=O)c1OCc1cccc(Cl)c1 [ID-41]
logP = 3.26^a)	CCn1ncc(C(=O)c2ccc(C(F)(F)F)cc2Cn2nc(SC)n(C)c2=O)c1OCc1ccc([N+](=O)[O-])cc1 [ID-42]
logP = 3.89^a)	CCn1ncc(C(=O)c2ccc(C(F)(F)F)cc2Cn2nc(SC)n(C)c2=O)c1OCc1ccc(C(F)(F)F)cc1 [ID-43]
logP = 3.85^a)	CCn1ncc(C(=O)c2ccc(C(F)(F)F)cc2Cn2nc(SC)n(C)c2=O)c1OCc1cccc(C(F)(F)F)c1 [ID-44]
logP = 3.19^a)	CCn1ncc(C(=O)c2ccc(C(F)(F)F)cc2Cn2nc(SC)n(C)c2=O)c1OCC(=O)c1ccccc1 [ID-45]
logP = 3.47^a)	CCn1ncc(C(=O)c2ccc(C(F)(F)F)cc2Cn2nc(SC)n(C)c2=O)c1OCC(=O)c1ccc(C)cc1 [ID-46]
logP = 3.64^a)	CCn1ncc(C(=O)c2ccc(C(F)(F)F)cc2Cn2nc(SC)n(C)c2=O)c1OCC(=O)c1ccc(Cl)cc1 [ID-47]

Second part, the molecule before the results:

SMILES	logP
CCn1ncc(C(=O)c2ccc(C(F)(F)F)cc2Cn2nc(C)n(C)c2=O)c1O [Example 64]	logP = 1.80^a)
CCn1ncc(C(=O)c2ccc(C(F)(F)F)cc2Cn2nc(OC)n(C)c2=O)c1O [Example 66]	logP = 2.27^a)
CCn1ncc(C(=O)c2ccc(S(C)(=O)=O)cc2Cn2nc(C(F)(F)F)n(C)c2=O)c1O [Example 67]	logP = 1.60^a)
CCn1ncc(C(=O)c2ccc(S(C)(=O)=O)cc2Cn2nc(OCC(F)(F)F)n(C)c2=O)c1O [Example 68]	logP = 1.73^a)
CCn1ncc(C(=O)c2ccc(F)c(Cn3nc(C)n(C)c3=O)c2Cl)c1O [Example 69]	logP = 1.76^a)
CCn1ncc(C(=O)c2ccc(F)c(Cn3nc(SC)n(C)c3=O)c2Cl)c1O [Example 70]	logP = 1.76^a)
CCn1ncc(C(=O)c2ccc(F)c(Cn3nc(OC)n(C)c3=O)c2Cl)c1O [Example 71]	logP = 1.55^a)
CCn1ncc(C(=O)c2ccc(F)c(Cn3nc(N(C)C)n(C)c3=O)c2Cl)c1O [Example 72]	logP = 1.62^a)
CCn1ncc(C(=O)c2ccc(Cl)c(CN3CCN(C)C3=O)c2Cl)c1O [ID-1]	logP = 1.64^a)
CCn1ncc(C(=O)c2ccc(Cl)c(CN3CCCN(C)C3=O)c2Cl)c1O [ID-2]	logP = 1.77^a)
CN1CCCN(Cc2c(Cl)ccc(C(=O)c3cnn(C)c3O)c2Cl)C1=O [ID-3]	logP = 1.52^a)
Cc1nn(C)c(O)c1C(=O)c1ccc(Cl)c(CN2CCCN(C)C2=O)c1Cl [ID-4]	logP = 1.50^a)
CCn1nc(C)c(C(=O)c2ccc(Cl)c(CN3CCCN(C)C3=O)c2Cl)c1O [ID-5]	logP = 1.72^a)
Cc1nn(C(C)(C)C)c(O)c1C(=O)c1ccc(Cl)c(CN2CCCN(C)C2=O)c1Cl [ID-6]	logP = 3.01^a)
CCn1ncc(C(=O)c2ccc(C(F)(F)F)cc2Cn2nc(SC)sc2=O)c1O [ID-7]	logP = 2.98^a)
CCn1ncc(C(=O)c2ccc(C(F)(F)F)cc2Cn2cc(Cl)cc(Cl)c2=O)c1O [ID-8]	logP = 2.75^a)
CCOc1nn(Cc2cc(C(F)(F)F)ccc2C(=O)c2cnn(CC)c2OS(=O)(=O)c2ccc(C)cc2)c(=O)n1C [ID-9]	logP = 3.82^a)
CCOc1nn(Cc2cc(C(F)(F)F)ccc2C(=O)c2cnn(CC)c2OS(C)(=O)=O)c(=O)n1C [ID-11]	logP = 3.25^a)
CN1CCN(Cc2c(Cl)ccc(C(=O)c3cnn(C)c3O)c2Cl)C1=O [ID-50]	logP = 1.41^a)
Cc1nn(C)c(O)c1C(=O)c1ccc(Cl)c(CN2CCN(C)C2=O)c1Cl [ID-51]	logP = 1.38^a)

SMILES	logP
CCn1nc(C)c(C(=O)c2ccc(Cl)c(CN3CCN(C)C3=O)c2Cl)c1O [ID-52]	logP = 1.56^a)
Cc1nn(C(C)(C)C)c(O)c1C(=O)c1ccc(Cl)c(CN2CCN(C)C2=O)c1Cl [ID-53]	logP = 2.79^a)
CCN1CCN(Cc2c(Cl)ccc(C(=O)c3cnn(C)c3O)c2Cl)C1=O [ID-54]	logP = 1.62^a)
CCN1CCN(Cc2c(Cl)ccc(C(=O)c3c(C)nn(C)c3O)c2Cl)C1=O [ID-55]	logP = 1.57^a)
CCN1CCN(Cc2c(Cl)ccc(C(=O)c3cnn(CC)c3O)c2Cl)C1=O [ID-56]	logP = 1.88^a)
CCN1CCN(Cc2c(Cl)ccc(C(=O)c3c(C)nn(CC)c3O)c2Cl)C1=O [ID-57]	logP = 1.79^a)
CCN1CCN(Cc2c(Cl)ccc(C(=O)c3c(C)nn(C(C)(C)C)c3O)c2Cl)C1=O [ID-58]	logP = 3.15^a)
COC(=O)c1ccc(Cl)c(Cn2nc(SC)n(C)c2=O)c1Cl [IV-3]	logP = 2.27^a)
CCOc1nn(Cc2c(Cl)ccc(C(=O)OC)c2Cl)c(=O)n1C [IV-4]	logP = 2.38^a)
COC(=O)c1ccc(Cl)c(Cn2nc(C3CC3)n(C3CC3)c2=O)c1Cl [IV-5]	logP = 2.55^a)
COC(=O)c1ccc(Cl)c(Cn2nc(OC)n(C)c2=O)c1Cl [IV-6]	logP = 2.04^a)
COC(=O)c1ccc(Cl)c(Cn2nc(OC(C)C)n(C)c2=O)c1Cl [IV-7]	logP = 2.73^a)
COC(=O)c1ccc(Cl)c(Cn2nc(OCC(F)(F)F)n(C)c2=O)c1Cl [IV-8]	logP = 2.72^a)
COC(=O)c1ccc(Cl)c(Cn2nc(Br)n(C)c2=O)c1Cl [IV-9]	logP = 2.18^a)
COC(=O)c1ccc(Cl)c(Cn2ncn(C)c2=O)c1Cl [IV-10]	logP = 1.55^a)
COC(=O)c1ccc(Cl)c(Cn2nc(C3CC3)n(C)c2=O)c1Cl [IV-11]	logP = 2.16^a)
COC(=O)c1ccc(Cl)c(Cn2nc(N(C)C)n(C)c2=O)c1Cl [IV-12]	logP = 2.11^a)
COC(=O)c1ccc(Cl)c(Cn2nc(C)n(C)c2=O)c1Cl [IV-13]	logP = 1.65^a)
COC(=O)c1ccc(Cl)c(Cn2nc3n(c2=O)CCCC3)c1Cl [IV-14]	logP = 1.86^a)
